Experimental data from patent US6967196B1, “Sulfonamide compounds and uses thereof” (Bristol-Myers Squibb Company, priority 1999, dated 2005).
Counter-ions that a name gives are not always drawn.

Each compound was assayed on amyloid β production in transfected H4 (human neuroglioma) cells stably expressing APP constructs (assay: In vitro cell-based assay of inhibitors of amyloid β production (ELISA)). Conditions: Homo sapiens, 16 h, transfected H4 cells expressing APP, approximately 16 hours incubation, amyloid β in medium by ELISA; read-out: ACTIVITY (IC50, inhibition of amyloid β production).
How it was run: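 Transfected H4 cells stably expressing wild-type or variant APP were exposed to compounds (initial screen 10-100 μM) for about 16 h. Secreted Aβ in the medium was quantified by sandwich ELISA (C-terminal-specific monoclonal capture, N-terminal-specific polyclonal detection) against an Aβ standard curve; dose-response runs followed for actives.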

IC50 [nM] | Compound
> 500 | C[C@H](C(=O)NCc1ccc(C2=CSNN2)cc1)N(c1cc(Cl)ccc1F)S(=O)(=O)c1ccc(Cl)cc1 [Example 1366]
> 500 | C[C@H](C(=O)NCCc1ccccc1F)N(c1cc(Cl)ccc1F)S(=O)(=O)c1ccc(Cl)cc1 [Example 1359]
≤ 25 | CCN(CC)C(=O)OC[C@@H](C)N(c1cc(Cl)ccc1CO)S(=O)(=O)c1ccc(Cl)cc1 [Example 1283]

Same assay, conditions: Homo sapiens, 16 h, transfected H4 cells stably expressing APP constructs; approximately 16 hours incubation; amyloid β in medium by ELISA; read-out: ACTIVITY (IC50, inhibition of amyloid β production)

IC50 [nM] | Compound
100 to 500 | C[C@H](CCCS(=O)(=O)N(CCCn1ccnc1)CC1CC1)N(c1cc(Cl)ccc1CO)S(=O)(=O)c1ccc(Cl)cc1 [Example 1236, 4-chloro-N-[5-chloro-2-(hydroxymethyl)phenyl]-N-[4-[N-(cyclopropylmethyl)-N-[3-(1H-imidazol-1-yl)-propyl]aminosulfonyl]-1(R)-methylbutyl]benzenesulfonamide]
> 500 | C[C@H](CCCN(c1cc(Cl)ccc1Cl)S(=O)(=O)c1ccc(Cl)cc1)N(c1cc(Cl)ccc1Cl)S(=O)(=O)c1ccc(Cl)cc1 [Example 1158, 4-chloro-N-(2,5-dichlorophenyl)-N-[4-[N-(2,5-dichlorophenyl)-N-[(4-chlorophenyl)sulfonyl]amino]-1(R)-methylbutyl]benzenesulfonamide]

Same assay, conditions: Homo sapiens, 16 h, transfected H4 cells stably expressing APP; approx. 16 h incubation; amyloid β in medium by ELISA; read-out: ACTIVITY (IC50, inhibition of amyloid β production)

IC50 [nM] | Compound
100 to 500 | CCN(CC)C(=O)N(CC)CCOc1ccccc1C(C)N(c1cc(F)ccc1F)S(=O)(=O)c1ccc(Cl)cc1 (stereo not shown) [Example 698, 4-chloro-N-[1-(2-{2-[[(diethylamino)carbonyl](ethyl)amino]ethoxy}phenyl)ethyl]-N-(2,5-difluorophenyl)benzenesulfonamide]
100 to 500 | O=S(=O)(c1ccc(Cl)cc1)N(Cc1ccccc1C#CCN1CCCCC1)c1cc(F)ccc1F [Example 711, 4-chloro-N-(2,5-difluorophenyl)-N-{2-[3-(1-piperidinyl)-1-propynyl]benzyl}benzenesulfonamide hydrochloride]
100 to 500 | O=C(C1CC1c1ccccc1)N1CCCCC1CCOc1ccccc1CN(c1cc(F)ccc1F)S(=O)(=O)c1ccc(Cl)cc1 (stereo not shown) [Example 780, 4-chloro-N-(2,5-difluorophenyl)-N-[2-(2-{1-[(2-phenylcyclopropyl)carbonyl]-2-piperidinyl}ethoxy)benzyl]benzenesulfonamide]

Compound | IC50 [nM]
O=S(=O)(c1ccc(Cl)cc1)N(Cc1ccccc1OCCCN1CCC(O)CC1)c1ccccc1 [Example 645, 4-chloro-N-{2-[3-(4-hydroxy-1-piperidinyl)propoxy]benzyl}-N-phenylbenzenesulfonamide hydrochloride] | 100 to 500

Same assay, conditions: Homo sapiens, 16 h, transfected H4 cells stably expressing APP; approximately 16 hours incubation; amyloid β in medium by ELISA; read-out: ACTIVITY (IC50, inhibition of amyloid β production)

IC50 [nM] | Compound
> 500 | COc1ccc(C(=O)N2CCCCC2CCOc2ccccc2CN(c2cc(F)ccc2F)S(=O)(=O)c2ccc(Cl)cc2)cc1OC (stereo not shown) [Example 890, 4-chloro-N-(2,5-difluorophenyl)-N-(2-{2-[1-(3,4-dimethoxybenzoyl)-2-piperidinyl]ethoxy}benzyl)benzenesulfonamide]
100 to 500 | O=S(=O)(CCCOc1ccccc1CN(c1cc(F)ccc1F)S(=O)(=O)c1ccc(Cl)cc1)c1ccccc1 [Example 818, 4-chloro-N-(2,5-difluorophenyl)-N-{2-[3-(phenylsulfonyl)propoxy]benzyl}benzenesulfonamide]

Compound | IC50 [nM]
CCCCOc1ccc(C(=O)N2CCCCC2CCOc2ccccc2CN(c2cc(F)ccc2F)S(=O)(=O)c2ccc(Cl)cc2)cc1 (stereo not shown) [Example 899, N-(2-{2-[1-(4-butoxybenzoyl)-2-piperidinyl]ethoxy}benzyl)-4-chloro-N-(2,5-difluorophenyl)benzenesulfonamide] | > 500

Same assay, conditions: transfected H4 cells stably expressing APP constructs; approximately 16 hours incubation; amyloid β in medium by ELISA; read-out: ACTIVITY (IC50, inhibition of amyloid β production)

Compound | IC50 [nM]
CCS(=O)(=O)CCC[C@@H](C)N(c1cc(Cl)ccc1CO)S(=O)(=O)c1ccc(Cl)cc1 [Example 1217, 4-chloro-N-[5-chloro-2-(hydroxymethyl)phenyl]-N-[1(R)-methyl-(4-ethylsulfonyl)butyl]benzenesulfonamide] | ≤ 25
CSC1CCN(CCC[C@@H](C)N(c2cc(Cl)ccc2Cl)S(=O)(=O)c2ccc(Cl)cc2)C1 (stereo partly shown) [Example 1148] | 100 to 500
C[C@H](CCCNC(=O)[C@@H](O)c1ccccc1)N(c1cc(Cl)ccc1Cl)S(=O)(=O)c1ccc(Cl)cc1 [Example 1124] | 50 to 100
C[C@H](CCCNS(C)(=O)=O)N(c1cc(Cl)ccc1F)S(=O)(=O)c1ccc(Cl)cc1 [Example 1100] | ≤ 25
COC(=O)[C@H](NC(=O)CCC[C@@H](C)N(c1cc(Cl)ccc1F)S(=O)(=O)c1ccc(Cl)cc1)C(C)C [Example 1266, (R)-4-Chloro-N-(5-chloro-2-fluorophenyl)-N-[5-[N-(R)-[1-(methoxycarbonyl)-2-methylpropyl]amino]-1-methyl-5-oxopentyl]benzenesulfonamide] | ≤ 25

Same assay, conditions: transfected H4 cells stably expressing APP; approx. 16 h incubation; amyloid β in medium by ELISA; read-out: ACTIVITY (IC50, inhibition of amyloid β production)

IC50 [nM] | Compound
100 to 500 | 2-((1R)-1-{[(4-chlorophenyl)sulfonyl]-2,5-difluoroanilino}ethyl)benzyl 1,2,3,4-tetrahydro-1-naphthalenylcarbamate [Example 660]
100 to 500 | 2-((1R)-1-{[(4-chlorophenyl)sulfonyl]-2,5-difluoroanilino}ethyl)-5-fluorobenzyl sec-butylcarbamate [Example 795]

More lines, now with the values behind:

Compound | IC50 [nM]
(2E)-N-{2-[2-(1-{[(4-chlorophenyl)sulfonyl]-2,5-difluoroanilino}ethyl)phenoxy]ethyl}-N-ethyl-2-butenamide [Example 649] | 100 to 500
N-{3-[2-(1-{[(4-chlorophenyl)sulfonyl]-2,5-difluoroanilino}ethyl)phenoxy]propyl}-3,4,5-trimethoxybenzamide [Example 651] | 100 to 500
CC(C)[C@H](NC(=O)CCCC[C@@H](C)N(c1cc(Cl)ccc1F)S(=O)(=O)c1ccc(Cl)cc1)C(=O)O [Example 547, (R)-4-Chloro-N-(5-chloro-2-fluorophenyl)-N-[6-[N-(S)-[1-(carboxy)-2-methylpropyl]amino]-1-methyl-6-oxohexyl]benzenesulfonamide] | 100 to 500
N-{3-[2-(1-{[(4-chlorophenyl)sulfonyl]-2,5-difluoroanilino}ethyl)phenoxy]propyl}-2,4-dimethoxy-N-methylbenzamide [Example 753] | 100 to 500

Same assay, conditions: transfected H4 cells stably expressing APP; approximately 16 hours incubation; amyloid β in medium by ELISA; Table B; read-out: ACTIVITY (IC50, inhibition of amyloid β production)

Compound | IC50 [nM]
CC(C)[C@H](NC(=O)CCC[C@@H](C)N(c1cc(Cl)ccc1F)S(=O)(=O)c1ccc(Cl)cc1)C(=O)O [Example 536, (R)-4-Chloro-N-(5-chloro-2-fluorophenyl)-N-[5-[N-(S)-[1-(carboxy)-2-methylpropyl]amino]-1-methyl-5-oxopentyl]benzenesulfonamide] | 100 to 500
N-{2-[2-(1-{[(4-chlorophenyl)sulfonyl]-2,5-difluoroanilino}ethyl)phenoxy]ethyl}-N-methylcyclohexanecarboxamide [Example 511] | 100 to 500

Same assay, conditions: transfected H4 cells stably expressing APP; approximately 16 hours incubation; amyloid β in medium by ELISA; read-out: ACTIVITY (IC50, inhibition of amyloid β production)

IC50 [nM] | Compound
> 500 | 4-chloro-N-{3-[2-({[(4-chlorophenyl)sulfonyl]-2,5-difluoroanilino}methyl)phenoxy]propyl}-N-methylbenzamide [Example 970]
> 500 | 5-[2-((1R)-1-{[(4-chlorophenyl)sulfonyl]-2,5-difluoroanilino}ethyl)-5-fluorophenyl]butanoic acid [Example 1070]
> 500 | N-{3-[2-({[(4-chlorophenyl)sulfonyl]-2,5-difluoroanilino}methyl)phenoxy]propyl}-N-methyl-1,3-benzodioxole-5-carboxamide [Example 903]
> 500 | N-hydroxy-3-(2-{[(phenylsulfonyl)anilino]methyl}phenyl)propanamide [Example 1042]
> 500 | [({4-[2-((1R)-1-{[(4-chlorophenyl)sulfonyl]-2,5-difluoroanilino}ethyl)-5-fluorophenyl]butanoyl}amino)oxy]acetic acid [Example 1077]
100 to 500 | N-{3-[2-({[(4-chlorophenyl)sulfonyl]-2,5-difluoroanilino}methyl)phenoxy]propyl}-2,4-dimethoxy-N-methylbenzamide [Example 834]
100 to 500 | CCCCC(CC)C(=O)N(C)CCCOc1ccccc1CN(c1cc(F)ccc1F)S(=O)(=O)c1ccc(Cl)cc1 (stereo not shown) [Example 837, N-{3-[2-({[(4-chlorophenyl)sulfonyl]-2,5-difluoroanilino}methyl)phenoxy]propyl}-2-ethyl N-methylhexanamide]
> 500 | 2-((1R)-1-{[(4-chlorophenyl)sulfonyl]-2,5-difluoroanilino}ethyl)benzyl 3,4-difluorobenzylcarbamate [Example 961]

The next lines start with the compound.

Compound | IC50 [nM]
4-butoxy-N-{3-[2-({[(4-chlorophenyl)sulfonyl]-2,5-difluoroanilino}methyl)phenoxy]propyl}-N-methylbenzamide [Example 817] | 100 to 500
N-{3-[2-(1-{[(4-chlorophenyl)sulfonyl]-2,5-difluoroanilino}ethyl)phenoxy]propyl}-N-methyl-1-naphthamide [Example 966] | > 500
3,4-dichloro-N-{3-[2-(1-{[(4-chlorophenyl)sulfonyl]-2,5-difluoroanilino}ethyl)phenoxy]propyl}-N-methylbenzamide [Example 847] | 100 to 500
N-{3-[2-(1-{[(4-chlorophenyl)sulfonyl]-2,5-difluoroanilino}ethyl)phenoxy]propyl}-N-methyl-3,5-bis(trifluoromethyl)benzamide [Example 934] | > 500
